Measured values from US20030207830A1, “Mutant NDP kinases for antiviral nucleotide analog activation and therapeutic uses thereof” (priority 2002, published 2003).
Positions count from the first letter of the chain named. Names may count otherwise. One block for each molecule: values may come before it.

Assays:
[1] = tested on: E. coli BL21 (DE3) cells transformed with pJC20; experiment: AZT sensitivity of E. coli transformed with plasmid without insertion; type: cell-based; conditions: versus bacteria expressing NDPK-A, N115S-NDPK-A and L55H-N115S-NDPK-A, range tested
Method: (§12) The cells were grown at 37° C. in exponential phase in minimum medium. They were then complemented with various concentrations of AZT, and turbidity at 600 nm was measured after 4H. Transformation with the vector without insertion served as a control.
(§13) Wild type and mutated NDP kinases were overexpressed in E. coli cells, and the sensitivity of exponentially growing cells to AZT was assayed after induction of NDP kinase expression by IPTG. The viability was estimated by plating and counting the cells.
(§14) The sensitivity to AZT of E. coli transformed with NDP kinase expression vectors was evaluated. Bacteriea BL21 (DE3) (Stratagene) were transformed by heat shock with pJC20 vectors (Schaertl, 1998) expressing either the wild type NDPK-A (pJC20-HA), the mutant enzyme N115S (pJC20-N115S), the double mutant enzyme L55H-N115S (pJC20-L55H-N115S), or without insertion (pJC20). Bacteria were grown at 37° C. in M9 liquid medium supplemented with casaminoacids (Dilco ref.) in exponential phase, then 10 μM IPTG was added. After 1 hour, cells were complemented with AZT from 10^−7 mg/mL to 10^−4 mg/mL for 4 hours. One mL of bacteria was plated onto LB agar, incubated overnight at 37° C., and counted.

[2] = target: T1, human NDP kinase A (NDPK-A) variant L55H-N115S, SEQ ID NO: 3 (Homo sapiens, UniProt P15531, L55H/N115S); experiment: Pre-steady-state phosphotransfer, fluorescence stopped-flow; type: biochemical; conditions: substitution of Asn 115 for Ser and Leu 55 for His
T1 construct: made in house; host or cells: E. coli
T1 sequence (P15531 whole entry L55H/N115S): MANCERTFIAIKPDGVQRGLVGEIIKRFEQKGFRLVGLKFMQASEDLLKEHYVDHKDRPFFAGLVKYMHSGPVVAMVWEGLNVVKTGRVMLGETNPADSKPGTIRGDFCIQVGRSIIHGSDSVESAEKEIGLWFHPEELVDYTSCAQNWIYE
Method: (§1) FIG. 3 depicts the catalytic efficiency of NDPK-A and mutants for nucleoside analogs. The rates of phosphorylation of pure recombinant NDP kinases (1 μM) were measured at the pre-steady state in a fluorescence stopped-flow with d4T-TP (10 to 80 μM). The catalytic efficiency (expressed in M^−1s^−1) was determined from the variation of the rate as a function of analog as shown in FIG. 2 (▾, NDPK-A, ♦ L55H, ● N115S, ▪ L55H-N115S).
(§2) The activity assays were performed at the pre-steady state level.
(§3) R, the specificity change, is the ratio of the catalytic efficiencies (for analog versus natural nucleotide) of the mutant compared to the wild type enzyme.
(§4) Wild type human NDPK-A and the mutants were expressed and purified according to Schneider et al., 2000, Mol Pharm. Recombinant wild type and mutant Dd-NDPK were obtained as described (Schneid, 1998a), except for N119Y NDP kinase which was partially purified by Q sepharose FF chromatography. Each protein was characterized by […] electrophoresis. The concentration of 17 kDa subunits of the enzyme was either determined by Bradford assay ([…]) or using an absorbance coefficient of ΔA^280=1.249 for a 1 mg/mL solution of human wild type and N115S NDPK-A, and =0.55 for wild type and mutant N119S, N119T Dd-NDP kinases, respectively.
(§5) As the diphosphate form of analogs were not always available, the triphosphate analogs were used to study phosphate transfer in reaction as in Scheme I. Experiments were performed with an Hi-Tech DX2 microvolume stopped-flow reaction (Schneider, 1998) at Aexc=296 nm (for Ado derivatives) or […] (for other nucleotides), 2 mm excitation slit and a 320 nm cutoff filter at the emission. After mixing NDPK (1 μM) and NTP or an analogTP (10-500 μM), the intrinsic protein fluorescence was recorded for 10-200 sec. In each experiment, 400 pairs of data were recorded, and the data from 3-4 identical experiments were averaged and fitted to a number of non-linear analytical equations using the software provided by Hi-Tech.
(§6) The data were analyzed using the reaction scheme: [drawing 1]
(§7) In both the forward and the reverse reactions, the product concentration remains very low, thus the product binding can be neglected, and the observed single step could be attributed to the phosphotransfer (Schneider, 1998). The rate of this observed single step is: [formula]
and reaches a limiting value (k+2) at NTP saturation. […] Therefore, catalytic efficiencies of phosphorylation (CEphos=k+2/(k−1/k+1)=k+2/KS) were measured, which are equivalent to second order constants and allow a reliable comparison of a variety of NDP kinase substrates.

[3] = tested on: E. coli BL21 (DE3) cells expressing L55H-N115S NDPK-A
Method: as §12, §13, §14

[4] = target: T2, Dictyostelium discoideum NDP kinase (Dd-NDPK) variant N119S, SEQ ID NO: 1 (Dictyostelium discoideum, UniProt P22887, N119S); experiment: Pre-steady-state phosphotransfer, fluorescence stopped-flow; type: biochemical
T2 construct: made in house
T2 sequence (P22887 whole entry N119S): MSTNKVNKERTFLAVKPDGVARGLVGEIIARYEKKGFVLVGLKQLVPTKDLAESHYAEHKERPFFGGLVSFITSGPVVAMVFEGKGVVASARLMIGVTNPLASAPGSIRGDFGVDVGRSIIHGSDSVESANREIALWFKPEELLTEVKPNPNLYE
Method: (§8) (A) Kinetics of reaction of phosphorylated Dictyostelium wild type and N119S NDP kinases by 100 μM Acyclovir diphosphate (Acy-DP). The phosphorylated enzyme was prepared with a stoichiometry #1 as described (Deville-Bonne 1996). The kinases were preincubated with ATP in excess in buffer T (50 mM Tris-HCl, pH 7.5, 5 mM MgCl2 and 75 mM KCl). The increase in fluorescence upon mixing the phospho-enzyme (1 μM, final concentration) with Acy-DP in buffer T at 20° C. was monitored with a stopped-flow. The solid lines represent the best fit of each curve to a monoexponential.
(§9) (B) Concentration dependence of the rate constant on Acy-DP concentation. The pseudo-first order rate constant for the reaction (kobs) was plotted against Acy-DP.
All numbers in italics have already been published (Schneider, 1998, 2000) The kinetic constants were measured at the pre-steady-state level using a fluorescence stopped-flow device. The binding constants were determined at equilibrium by recording the increase in fluorescence (Schneider, 2000). Values are the average of three independent determinations.
as §4
as §5, with “Hi-Tech. All curves fitted to single exponentials.” for “Hi-Tech.”
as §6, §7
and reaches a limiting value (k+2) at NTP saturation. Saturation could not be obtained with the concentrations of any NTP used here. Therefore, catalytic efficiencies of phosphorylation (CEphos=k+2/(k−1/k+1)=k+2/KS) were measured, which are equivalent to second order constants and allow a reliable comparison of a variety of NDP kinase substrates.

[5] = target: T3, phosphorylated Dictyostelium N119S NDP kinase (Dictyostelium discoideum, UniProt P22887, N119S); experiment: Stopped-flow kinetics of phosphorylated enzyme with Acy-DP, N119S; type: biochemical
T3 construct: made in house
T3 sequence (P22887 whole entry N119S): as above
Method: as §8, §9
Acyclovir is an acyclic nucleoside analog of Gua used against Herpes Simplex Virus.

[6] = target: T4, phosphorylated Dictyostelium wild type NDP kinase (Dictyostelium discoideum, UniProt P22887); experiment: Stopped-flow kinetics of phosphorylated enzyme with Acy-DP, wild type; type: biochemical; conditions: phospho-enzyme 1 μM, buffer T, 20° C.
T4 construct: made in house
T4 sequence (P22887 1-155): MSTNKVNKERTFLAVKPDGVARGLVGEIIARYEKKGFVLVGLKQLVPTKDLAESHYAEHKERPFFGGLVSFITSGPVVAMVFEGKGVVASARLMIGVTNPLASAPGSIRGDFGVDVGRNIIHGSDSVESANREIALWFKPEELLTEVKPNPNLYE
Method: as §8, §9

[7] = target: T2, Dictyostelium discoideum NDP kinase (Dd-NDPK) variant N119S, SEQ ID NO: 1; experiment: Steady-state kinetics with ATP and dTDP, coupled enzymes; type: biochemical; conditions: dTDP
Method: (§10) First, by site-directed mutagenesis, a limited set of amino acid substitutions (Ser, Thr, or Tyr) at the position of Asn 119 were introduced into the active site of Dd-NDPK. The three mutant proteins were expressed and purified to homogeneity, except N119Y, which was found unstable and poorly active (0.05% of wild type activity).
(§11) The activity of NDP kinase was measured at 20° C. with ATP and dTDP as substrates using coupled enzymes (pyruvate kinase and lactate dehydrogenase) (Lascu 1993). One unit is the amount of enzyme that catalyzes the phosphotransfer of 1 μmol/min under standard conditions: [ATP]=1 mM, [dTDP]=0.2 mM. Rate constants (kcat) and Michaelis constants (Km) were determined from initial velocities for two different constant ratios of nucleotide [dTDP]/[ATP]=0.05 0.1 with [ATP] varying from 0.2 to 2 mM. kcat is expressed by enzyme subunit. The ratio of the ^apparentkcat/^apparentKM at a given concentration of the other substrate is equal to the true value of kcat/KM for a ping-pong enzyme.

[8] = target: T5, Dictyostelium discoideum NDP kinase (Dd-NDPK) variant N119T (Dictyostelium discoideum, UniProt P22887, N119T); experiment: Steady-state kinetics with ATP and dTDP, coupled enzymes; reactivity for analogs; type: biochemical; conditions: dTDP
T5 construct: made in house
T5 sequence (P22887 whole entry N119T): as the sequence (P22887 whole entry N119S) above, with S119T counted along it
Method: as §10, §11

[9] = Human NDPK-A mutants, summary over several nucleotide analogs compared to natural nucleotides; type: biochemical
Method: as §2, §3
The mutants described so far show altered specificity for antiviral drugs and natural nucleotides. Such a switch is usually defined as R, the specificity change, reflecting the ability of a mutant enzyme to prefer the analog rather than the natural nucleotide according to the expression: [formula]
where R is the ratio of the specificity factors of the mutant compared to the original enzyme, with the specificity factor of an enzyme being defined as the ratio of the catalytic efficiencies (CE=k2/KS) for a nucleotide analog and the natural nucleotide.

[10] = Pre-steady-state phosphotransfer of human NDPK-A and mutants with d4T-TP; type: biochemical; conditions: ratio of catalytic efficiencies
Method: as §1
The intrinsic fluorescence properties of the three mutants were not affected by the mutations and were quenched upon phosphorylation of the catalytic His, as observed with wild type NDP kinase (Deville-Bonne, 1996). […]
as §5, with “Hi-Tech. […]” for “Hi-Tech.”

[11] = Steady-state NDP kinase activity, coupled enzymes (pyruvate kinase, lactate dehydrogenase); type: biochemical; conditions: for specific activity: standard conditions: [ATP]=1 mM, [dTDP]=0.2 mM, 20° C.
Method: as §11

[12] = Dd-NDPK mutant; cited from earlier work
[13] = Reactivity of Dd-NDPK Asn 119 mutants for nucleotide analogs; type: biochemical; conditions: Dd-NDPK mutant versus wild type
Text: as §10

[14] = identical concentrations of Acy-DP

Molecule: Cc1cn([C@H]2C[C@H](N=[N+]=[N-])[C@@H](CO)O2)c(=O)[nH]c1=O [AZT]
sensitivity to AZT [1]: less sensitive to AZT | enhancement of ability to phosphorylate [2]: 200-300 times | viable cells ([3]; AZT 5 and 10 ng/ml, double mutant versus wild type enzyme or N115S mutant): fewer viable cells | sensitization to AZT ([3]; E. coli transfected with the double mutant enzyme): increased sensitization to AZT

Molecule: Nc1nc2c(ncn2COCCOP(=O)(O)OP(=O)(O)O)c(=O)[nH]1 [Acy-DP, Acyclovir diphosphate]
improvement of catalytic efficiency of phosphorylation by the mutation ([4]; from [Acy-DP] dependency of kobs): seven fold | phosphorylation rate relative to wild type enzyme [4, 14]: seven times faster | times faster phosphorylation by N119S NDP kinase than wild type enzyme [5, 14]: seven | apparent second order constant, N119S mutant ([5]; phospho-enzyme 1 μM, buffer T, 20° C.): 4,500 M^−1s^−1 | apparent second order constant, wild type NDP kinase [6]: 670 M⁻¹ s⁻¹

Molecule: Cc1cn([C@H]2C[C@H](O)[C@@H](COP(=O)(O)OP(=O)(O)O)O2)c(=O)[nH]c1=O [dTDP]
kcat, times lower than wild type enzyme [7]: ten times lower | effect on KM ([7]; versus wild type): little effect on KM | kcat, times lower than wild type enzyme [8]: three | effect on KM ([8]; versus wild type): little effect on KM

Molecule: L55H-N115S: double mutant human NDPK-A, Leu 55 to His and Asn 115 to Ser; SEQ ID NO: 3
increment in activity with analogs versus NDPK-A ([9]; catalytic efficiencies of Table II): 80-100 fold | times more slowly / fold less reaction with d4T-TP than with dTTP [10]: eight | specific activity [11]: 240 U/mg

steady-state activity relative to NDPK-A ([11]; ATP and dTDP): 1/10
Molecule: N115S: human NDPK-A with Asn 115 changed into Ser; SEQ ID NO: 2
specificity change (R), switch in specificity over analogs ([9]; analog versus natural nucleotide, mutant versus NDPK-A): around 100 | specific activity [11]: 140 U/mg

B1: N119A: Dd-NDPK with Asn 119 mutated into Ala (Schneider 2001) (protein, UniProt P22887 1-155, looked up, variant N119A)
Nucleoside diphosphate …: T4 sequence (P22887 1-155) with N119A
effect of mutation on kinetic parameters of the enzyme [12]: did not affect significantly

enzyme reactivity for analogs [13]: improvement
B2: N119S: Dd NDP kinase mutated at position 119, asparagine to serine; SEQ ID NO: 1 (protein, UniProt P22887 1-155, looked up, variant N119S)
Nucleoside diphosphate …: T4 sequence (P22887 1-155) with N119S
catalytic constant kcat, times lower than the wild type enzyme ([11]; natural substrates such as dTDP, steady state, Dd-NDPK): ten

enzyme reactivity for analogs [13]: without effect
B3: N119T: Dd-NDPK with Thr at the position of Asn 119 (protein, UniProt P22887 1-155, looked up, variant N119T)
Nucleoside diphosphate …: T4 sequence (P22887 1-155) with N119T
